Assay results: US9938316B2, “Selective inhibitors of α2 isoform of Na,K-ATPase and use thereof for reduction of intra-ocular pressure and as cardiotonic agents” (priority 2013, dated 2018)
Like-named read-outs stand apart in the source and are kept apart here.

Key:
[1] = test system: Na,K-ATPase α2β1 isoform complex; test: biochemical; assay type: biochemical, human; conditions: Kiα1β1/Kiα2β1
Experimental: (§1) Methods for transformation, culture of P. pastoris clones, protein expression of Na,K-ATPase human isoforms (α1β1, α2β1, α3β1), membrane preparation, solubilization of membranes in DDM, and purification on BD-Talon beads have been described in detail (6-9, 11, 25). In initial experiments the three purified isoform complexes (0.3-0.5 mg/ml) were eluted from the BD-Talon beads in a solution containing Imidazole 170 mM, NaCl 100 mM; Tricine.HCl 20 mM pH 7.4; C12E8, 0.1 mg/ml; SOPS 0.07 mg/ml cholesterol 0.01 mg/ml, glycerol 25%. In later experiments the isoforms complexes were reconstituted with purified FXYD1 on the BD-Talon beads together as described in detail in (10, 11) prior to elution of α1β1FXYD1, α2β1FXYD1 and α3β1FXYD1 complexes. The proteins were stored at −80° C. Protein concentration was determined with BCA (B9643 Sigma).
(§2) Inhibition of Na,K-ATPase activity of the detergent-soluble α1β1, α2β1, and α3β1 complexes by CG's was determined as described (6) using either the αβ or αβFXYD1 complexes. […] The K0.5K was estimated by varying K concentration in a medium containing a fixed total K+choline chloride of 60 mM, and constant NaCl of 140 mM. Curves were fitted to the Hill function v=Vmax*[S]^n/([S]^n+K^n), where S is the K concentration, n is the Hill coefficient and K^n is K0.5K. For comparison of different curves the ratio v/Vmax for each curve was calculated and replotted. In experiments to assess inhibition of Na,K-ATPase activity by cardiac glycosides of the present invention, the percent inhibition VCG/V0 was calculated and Ki values were obtained by fitting the data to the function VCG/V0=Ki/([CG]+Ki)+ c. Inhibition was estimated in 3-8 separate experiments and average Ki values ±SEM were calculated. Significance of differences between Kiα1 and Kiα2 was calculated by the unpaired Student's t-test (p values). […] P values <0.05 were considered significant.

[2] = biological target: Na,K-ATPase α2β1 isoform complex (Homo sapiens, UniProt P50993); test: biochemical; assay type: biochemical; conditions: α2β1
Experimental: as §1, §2

[3] = biological target: Na,K-ATPase α1β1 isoform complex (Homo sapiens, UniProt P05023); test: biochemical; conditions: α1β1
Experimental: as §1, §2

[4] = test system: intra-ocular pressure (IOP) of rabbits; test: 4-aminopyridine (4AP)-induced ocular hypertension in rabbits; assay type: in vivo, New Zealand white rabbits
Experimental: Intra-ocular pressure in rabbits was measured using of a “Reichert Model 30™ Pneumatonometer” after anesthetizing the cornea with local anesthetic.
Since the IOP reflects a balance of the inflow and outflow of aqueous humour, reduction of the increased 4AP-induced inflow of aqueous humour by cardiac glycosides should prevent the increase in IOP. Thus, the standard experimental design to test effects of cardiac glycosides involved topical application of the compounds (1 drop in each eye) 30 minutes prior to application of 4AP and measurement of IOP every 30 minutes over five hours. […] Each experiment was done three times, but the figures depict a representative experiment using a different rabbit for each concentration of the cardiac glycoside.
DGlyN or DMe (0.1 or 1 mM) were applied one hour after the first application of 4AP, which was added every two hours.
New Zealand white rabbits (3-3.5 kg) about 1 year old, of either sex, were housed individually in separate cages in animal room conditions on a reversed, 12-hour dark/light cycle. For the experiments the animals were transferred to rabbit restrainers in a quiet and calm atmosphere (FIG. 1). […] Animal care and treatment were subject to the approval of the institutional committee for animal experiments, Weizmann Institute IACUC permission (no 04270911-2).
IOP (mm Hg) of rabbits was measured using a calibrated Pneumatonometer (Model 30, Reichert technologies, FIG. 1). A local anesthetic Oxybuprocaine HCl (0.4%, 25 μl) was applied to each cornea about a minute before IOP measurements. Two baseline IOP readings were taken before topical administration of the CG (or PBS as control) and after half an hour (Zero time). […] At zero time one drop of 4AP (40 mg/ml, 30 μl) or IB-MECA (1 μM, 30 μl) was administered to both eyes of each rabbit IOP measurements were made at different times as indicated in each experiment. In the experiments for which the IOP was elevated for several hours, 4AP was added every […] or IB-MECA every 2 hours. […] In all cases the figures depict the average effect on IOP (i.e for four or six eyes) compared to control ±SEM. […] Significance of differences from the control was calculated by the unpaired Students t-test (p values), p values <0.05 were considered significant. Corneal thickness (μm) was measured using an ultrasonic pachymeter (Sonogage pachometer, Cleveland, USA), before and during the experiment with CG and 4AP treatments. The values represent averages of three independent measurements for each eye.

cornea of rabbits = test: Pachymetry: corneal thickness and local toxicity after topical cardiac glycosides; assay type: in vivo, New Zealand white rabbits; conditions: for Corneal thickness: 1 mM
Experimental: Thus, in this study, no change in corneal thickness was detected (Table 3), indicative of lack of local toxic effects. […] Similar results were obtained with CG's applied after IB-MECA.
IOP (mm Hg) of rabbits was measured using a calibrated Pneumatonometer (Model 30, Reichert technologies, FIG. 1). A local anesthetic Oxybuprocaine HCl (0.4%, 25 μl) was applied to each cornea about a minute before IOP measurements. Two baseline IOP readings were taken before topical administration of the CG (or PBS as control) and after half an hour (Zero time). […] At zero time one drop of 4AP (40 mg/ml, 30 μl) or IB-MECA (1 μM, 30 μl) was administered to both eyes of each rabbit IOP measurements were made at different times as indicated in each experiment. In the experiments for which the IOP was elevated for several hours, 4AP was added every 1.5 hours or IB-MECA every 2 hours. […] Each experiment was repeated two or three times with similar results. In all cases the figures depict the average effect on IOP (i.e for four or six eyes) compared to control ±SEM. Where error bars are not seen in the figures, the errors are smaller than the symbols used. Significance of differences from the control was calculated by the unpaired Students t-test (p values), p values <0.05 were considered significant. Corneal thickness (μm) was measured using an ultrasonic pachymeter (Sonogage pachometer, Cleveland, USA), before and during the experiment with CG and 4AP treatments. The values represent averages of three independent measurements for each eye.

Row | Structure (SMILES) | Selectivity ratio Ki α1/α2 ± S.E. [1] | Ki ([2]; Ki ± S.E. α2, Table 2) [nM] | Ki ([3]; Ki ± S.E. α1, Table 2) [nM] | further results
1 | CC1CN(O)CCC(OC2C(O)CC(OC3C(O)CC(OC4CCC5(C)C(CCC6C5CC(O)C5(C)C(C7=CC(=O)OC7)CCC65O)C4)OC3C)OC2C)O1 (stereo not drawn) [DOH] | 2.32 ± 0.62 | 134 ± 35 | 311 ± 18.5 | 
2 | CC1CN(C(C)C(N)=O)CCC(OC2C(O)CC(OC3C(O)CC(OC4CCC5(C)C(CCC6C5CC(O)C5(C)C(C7=CC(=O)OC7)CCC65O)C4)OC3C)OC2C)O1 (stereo not drawn) [DAlaN] | 3.46 ± 0.59 | 67 ± 8.1 | 232 ± 28 | 
3 | CC1CN(NC(N)=O)CCC(OC2C(O)CC(OC3C(O)CC(OC4CCC5(C)C(CCC6C5CC(O)C5(C)C(C7=CC(=O)OC7)CCC65O)C4)OC3C)OC2C)O1 (stereo not drawn) [DSCar] | 4.98±1.2 | 20 ± 3.6 | 102 ± 23 | 
4 | COC(=O)CN1CCC(OC2C(O)CC(OC3C(O)CC(OC4CCC5(C)C(CCC6C5CC(O)C5(C)C(C7=CC(=O)OC7)CCC65O)C4)OC3C)OC2C)OC(C)C1 (stereo not drawn) [DGlMe] | 4.22 ± 0.88 | 128 ± 11 | 540 ± 102 | 
5 | C[C@]12CC[C@H](O)C[C@H]1CC[C@@H]1[C@@H]2C[C@@H](O)[C@]2(C)[C@@H](C3=CC(=O)OC3)CC[C@]12O [Digoxigenin, digoxigenin, reference compound] |  | 130 ± 13.5 | 139 ± 17 | Time IOP is maintained at the low level ([4]; 1 mM, single drop, 4AP every two hours): about 2 hours
6 | CC1CN(CC(=O)O)CCC(OC2C(O)CC(OC3CCC4(C)C(CCC5C4CC(O)C4(C)C(C6=CC(=O)OC6)CCC54O)C3)OC2C)O1 (stereo not drawn) [DbisGly] | 2.29 ± 0.80 | 34.9 ± 12 | 80 ± 5.5 | 
7 | Nc1ccncc1 [4AP, 4-aminopyridine, reference compound] |  |  |  | Rise of IOP ([4]; one or two drops (40 mg/ml) in each eye): 3-6 mm Hg
8 | CC1CN(CC(=O)O)CCC(OC2C(O)CC(OC3C(O)CC(OC4CCC5(C)C(CCC6C5CC(O)C5(C)C(C7=CC(=O)OC7)CCC65O)C4)OC3C)OC2C)O1 (stereo not drawn) [DGly] | 5.1±0.54 | 25 ± 3.9 | 124 ± 8.6 | 
9 | C[C@@H]1O[C@@H](O[C@H]2C[C@@H](O)[C@]3(CO)[C@H]4[C@H](O)C[C@]5(C)[C@@H](C6=CC(=O)OC6)CC[C@]5(O)[C@@H]4CC[C@]3(O)C2)[C@H](O)[C@H](O)[C@H]1O [Ouabain, ouabain, reference compound] |  |  |  | Effect on 4AP-induced rise in IOP ([4]; 1 mM, 1 drop topically 30 minutes prior to 4AP): somewhat reduced IOP; Effect on 4AP-induced rise in IOP ([4]; concentrations lower than 1 mM, topically 30 minutes prior to 4AP): poorly effective; Wash-out time/rate compared with other cardiac glycosides ([4]; equal concentrations, 4AP every two hours): washed out at a rate between that of digoxin and digoxigenin; Corneal thickness (cornea of rabbits; left eye, 0 h): 455 microns; Corneal thickness (cornea of rabbits; left eye, 2 h): 409 microns; Corneal thickness (cornea of rabbits; left eye, 4 h): 422 microns; Corneal thickness (cornea of rabbits; right eye, 0 h): 461 microns; Corneal thickness (cornea of rabbits; right eye, 2 h): 405 microns; Corneal thickness (cornea of rabbits; right eye, 4 h): 414 microns; Corneal thickness (in words) (cornea of rabbits; over 4 hours, after 4AP, Digoxin 1 mM, DGlyN 0.5 mM, DMe 0.5 mM, ouabain 1 mM): not significantly affected; Redness or local irritation in conjunctiva or cornea (cornea of rabbits; topical, after 4AP): neither redness nor local irritation were observed
10 | C[C@H]1O[C@@H](O[C@H]2[C@@H](O)C[C@H](O[C@H]3CC[C@@]4(C)[C@H](CC[C@@H]5[C@@H]4C[C@@H](O)[C@]4(C)[C@@H](C6=CC(=O)OC6)CC[C@]54O)C3)O[C@@H]2C)C[C@H](O)[C@@H]1O [Dbis, digoxigenin bis digitoxide, reference compound] | 2.65 ± 0.81 |  |  | Ki ([2]; Table 2, read-out: Ki ± S.E. α2): 74 ± 5 nM; Ki ([3]; Table 2, read-out: Ki ± S.E. α1): 196 ± 8.5 nM
11 | CC1CN(C(CO)C(=O)O)CCC(OC2C(O)CC(OC3C(O)CC(OC4CCC5(C)C(CCC6C5CC(O)C5(C)C(C7=CC(=O)OC7)CCC65O)C4)OC3C)OC2C)O1 (stereo not drawn) [DSer] | 2.18 ± 0.86 | 145 ± 28.5 | 316 ± 109 | 
12 | CC1CN(CCC(N)=O)CCC(OC2C(O)CC(OC3C(O)CC(OC4CCC5(C)C(CCC6C5CC(O)C5(C)C(C7=CC(=O)OC7)CCC65O)C4)OC3C)OC2C)O1 (stereo not drawn) [DPrN] | 5.28±0.75 | 47 ± 7.8 | 249 ± 37 | 
13 | CC1CN(C(CO)C(N)=O)CCC(OC2C(O)CC(OC3C(O)CC(OC4CCC5(C)C(CCC6C5CC(O)C5(C)C(C7=CC(=O)OC7)CCC65O)C4)OC3C)OC2C)O1 (stereo not drawn) [DSerN] | 1.68 ± 0.13 | 144 ± 3.5 | 242 ± 15 | 
14 | CC1CN(CCN)CCC(OC2C(O)CC(OC3C(O)CC(OC4CCC5(C)C(CCC6C5CC(O)C5(C)C(C7=CC(=O)OC7)CCC65O)C4)OC3C)OC2C)O1 (stereo not drawn) [DEtDA] | 4.10 ± 0.82 | 16.7 ± 2.1 | 69 ± 10 | 
